One series concerns Porphyromonas gingivalis. To be noted: reported in the literature; cited from earlier work.
A short description of series [1]: Gastrointestinal absorption of compound 1 after oral administration (plasma AUC). As to conditions: rat; for AUC: male, Sprague-Dawley, compound 1 as free acid in plasma. The format is in vivo, Sprague-Dawley rats. The protocol:
Seven-week old male Sprague-Dawley rats orally received 70.5 mg/kg (57.1 mg (potency)/kg) of compound 1 and 57.1 mg/kg of disodium ethylenediaminetetraacetate. Controls orally received 70.5 mg/kg of compound 1 alone. At 0.1-10 hours after administration, blood was collected. The concentration of compound 1 as free acid in plasma was determined by high-performance liquid chromatography. For determination, plasma was used after pretreatment. That is, 0.2 mL of plasma was stirred with 0.2 mL of acetonitrile and then centrifuged at 4° C., 12000 rpm for 15 min. Two hundreds μL of this supernatant was diluted in 800 μL of 10 mM phosphate buffer, and 200 μL of this dilution was applied on a high-performance liquid chromatography column. The chromatography conditions were as follows. A stainless steel high-performance liquid chromatographic column packed with octadecylsilyl silica gel was used. The column temperature was room temperature. The mobile phase consisted of a binder containing 680 mL of a 20 mM aqueous sodium dihydrogenphosphate solution adjusted at pH 2 with phosphoric acid and 320 mL of acetonitrile. The flow rate was controlled at 1 mL/min. For detection, a UV absorption spectrometer was used at a wavelength of 318 nm.

Series [2] concerns bacterial strains from dental infectious diseases. To be noted: reported in the literature; increasingly resistant strains; cited from earlier work.
Series [3] deals with methicillin-sensitive Staphylococcus aureus (MSSA), Streptococcus pyrogenes and Streptococcus pneumoniae, penicillin-resistant pneumococci (PRSP), oral …. As to conditions: reported in the literature; gram-positive bacteria incl. strains where conventional β-lactams are ineffective; cited from earlier work.

Consider 1 compound from patent US6531508B1, “Antibacterial medicinal compositions” (priority 1999, dated 2003).

In the case of `C[C@@H](O)[C@H]1C(=O)N2C(C(=O)O)=C([C@H]3CCCO3)S[C@H]12` [compound 1, Sodium (+)-(5R,6S)-6-[(R)-1-hydroxyethyl]-7-oxo-3-[(R)-2-tetrahydrofuryl]-4-thia-1-azabicyclo[3.2.0]hept-2-ene-2-carboxylate 5/2 hydrate], the Antibacterial activity entry (in the series with Porphyromonas gingivalis; in series [2]; in series [3]) was “potent antibacterial activity” each time. Further, the “Change of AUC versus control group” value in series [1] (group coadministered with disodium ethylenediaminetetraacetate compared with compound 1 alone) is “approximately doubled”. Further, the AUC (commonly the area under the concentration-time curve, a measure of exposure) in series [1] (70.5 mg/kg compound 1 with 57.1 mg/kg disodium ethylenediaminetetraacetate) turned out to be 24800 ± 9300 ng·h/mL; in series [1] (control group: 70.5 mg/kg compound 1 alone), 12600 ± 5700 ng·h/mL.
